The target of this test is FGFR2 (Homo sapiens, UniProt P21802). Kind of test: FGFR2 Kinase Protocol - Condition 2 (Reaction Biology HotSpot radiometric kinase assay, no preincubation). Format: biochemical. The conditions noted are these: poly[Glu:Tyr] (4:1) 0.2 mg/ml, ATP 100 microM, 2 hr room temperature. An outline of the steps:
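Radiometric HotSpot format: FGFR2 (wildtype or V564F) with poly[Glu:Tyr] (4:1) at 0.2 mg/ml in HEPES pH 7.5 buffer with 1% DMSO; ATP plus [γ33P]ATP at 100 µM total, added without preincubation. Reactions ran 2 hr at room temperature, then filter-bound. IC50 from 10-dose, 3-fold series versus DMSO control.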

FGFR2, sequence (P21802 22-821): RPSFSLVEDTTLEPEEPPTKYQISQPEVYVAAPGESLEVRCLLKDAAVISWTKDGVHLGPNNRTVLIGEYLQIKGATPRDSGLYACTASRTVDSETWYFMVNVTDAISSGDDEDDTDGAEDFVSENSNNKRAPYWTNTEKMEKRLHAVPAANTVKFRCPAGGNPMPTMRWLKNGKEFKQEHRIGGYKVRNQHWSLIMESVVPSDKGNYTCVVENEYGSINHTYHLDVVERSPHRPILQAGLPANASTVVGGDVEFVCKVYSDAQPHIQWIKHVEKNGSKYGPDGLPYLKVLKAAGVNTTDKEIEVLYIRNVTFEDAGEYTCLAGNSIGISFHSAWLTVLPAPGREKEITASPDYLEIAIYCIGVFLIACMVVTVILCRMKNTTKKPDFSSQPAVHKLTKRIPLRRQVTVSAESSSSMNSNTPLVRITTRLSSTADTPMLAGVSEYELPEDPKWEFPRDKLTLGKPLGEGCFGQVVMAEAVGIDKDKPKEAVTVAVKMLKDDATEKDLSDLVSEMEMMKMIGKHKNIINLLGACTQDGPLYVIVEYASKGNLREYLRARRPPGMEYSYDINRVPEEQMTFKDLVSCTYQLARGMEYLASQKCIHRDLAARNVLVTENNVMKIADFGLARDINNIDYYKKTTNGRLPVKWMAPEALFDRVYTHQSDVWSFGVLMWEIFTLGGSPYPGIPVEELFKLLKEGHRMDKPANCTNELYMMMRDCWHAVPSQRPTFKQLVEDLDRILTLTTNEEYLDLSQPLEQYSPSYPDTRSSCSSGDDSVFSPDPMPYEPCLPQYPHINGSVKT

Turning to `C=CC(=O)N1C[C@@H](n2nc(C#Cc3c(F)cc4c(ncn4CC)c3F)c3c(N)nccc32)C[C@@H]1COC` [Example 86, 1-[(2R,4S)-4-[4-Amino-3-[2-(1-ethyl-4,6-difluoro-1,3-benzodiazol-5-yl)ethynyl]pyrazolo[4,3-c]pyridin-1-yl]-2-(methoxymethyl)pyrrolidin-1-yl]prop-2-en-1-one], the half-maximal inhibitory concentration (IC50) (usually the midpoint of a concentration-inhibition curve) is at most 100 nM.

For the molecule `C=CC(=O)N1C[C@@H](n2nc(C#Cc3cc4ncn(C)c4cc3F)c3c(N)ncnc32)C[C@@H]1CF` [Example 184, 1-[(2R,4S)-4-{4-Amino-3-[2-(6-fluoro-1-methyl-1,3-benzodiazol-5-yl)ethynyl]pyrazolo[3,4-d]pyrimidin-1-yl}-2-(fluoromethyl)pyrrolidin-1-yl]prop-2-en-1-one], the IC50 was at most 100 nM.

The molecule `C=CC(=O)N1CC[C@H](n2nc(C#Cc3cc4ncn(CC)c4cc3Cl)c3c(N)nccc32)C1` [Example 133, (S)-1-(3-(4-Amino-3-((6-chloro-1-ethyl-1H-benzo[d]imidazol-5-yl)ethynyl)-1H-pyrazolo[4,3-c]pyridin-1-yl)pyrrolidin-1-yl)prop-2-en-1-one] showed an IC50 of at most 100 nM.

Consider `C=CC(=O)N1C[C@@H](n2cc(C#Cc3c(F)cc4c(ncn4C)c3F)c3c(N)ncnc32)C[C@@H]1COC` [Example 61, 1-[(2R,4S)-4-[4-Amino-5-[2-(4,6-difluoro-1-methyl-1,3-benzodiazol-5-yl)ethynyl]pyrrolo[2,3-d]pyrimidin-7-yl]-2-(methoxymethyl)pyrrolidin-1-yl]prop-2-en-1-one], for which the IC50 was at most 100 nM.

`C=CC(=O)N1CC[C@H](n2nc(C#Cc3cc4ncn(CC)c4cc3F)c3c(N)ncnc32)C1` [Example 152, 1-[(3S)-3-{4-Amino-3-[2-(1-ethyl-6-fluoro-1,3-benzodiazol-5-yl)ethynyl]pyrazolo[3,4-d]pyrimidin-1-yl}pyrrolidin-1-yl]prop-2-en-1-one] had an IC50 of at most 100 nM.

Consider `C=CC(=O)N1C[C@@H](n2nc(C#Cc3c(F)cc4nn(C)cc4c3F)c3c(N)nccc32)C[C@@H]1COC` [Example 45, 1-((2R,4S)-4-(4-amino-3-((4,6-difluoro-2-methyl-2H-indazol-5-yl)ethynyl)-1H-pyrazolo[4,3-c]pyridin-1-yl)-2-(methoxymethyl)pyrrolidin-1-yl)prop-2-en-1-one], for which the 50% inhibitory concentration (IC50) lay in the range of 100 to 1000 nM.

Take `C=CC(=O)N1C[C@@H](n2cc(C#Cc3ccc4c(c3)ncn4C)c3c(N)ncnc32)C[C@@H]1COC(F)(F)F` [Example 66, 1-[(2R,4S)-4-[4-Amino-5-[2-(1-methyl-1,3-benzodiazol-5-yl)ethynyl]pyrrolo[2,3-d]pyrimidin-7-yl]-2-[(trifluoromethoxy)methyl]pyrrolidin-1-yl]prop-2-en-1-one]: the IC50 was at most 100 nM.

`C=CC(=O)N1C[C@@H](n2nc(C#Cc3c(F)cc4c(ncn4CC)c3F)c3c(N)ncnc32)C[C@@H]1COC` [Example 85, 1-[(2R,4S)-4-[4-Amino-3-[2-(1-ethyl-4,6-difluoro-1,3-benzodiazol-5-yl)ethynyl]pyrazolo[3,4-d]pyrimidin-1-yl]-2-(methoxymethyl)pyrrolidin-1-yl]prop-2-en-1-one]: the IC50 is at most 100 nM.

With `C=CC(=O)N1C[C@@H](n2nc(C#Cc3c(F)cc4c(ncn4C4CC4)c3F)c3c(N)ncnc32)C[C@@H]1COC(F)(F)F` [Example 76, 1-[(2R,4S)-4-[4-Amino-3-[2-(1-cyclopropyl-4,6-difluoro-1,3-benzodiazol-5-yl)ethynyl]pyrazolo[3,4-d]pyrimidin-1-yl]-2-[(trifluoromethoxy)methyl]pyrrolidin-1-yl]prop-2-en-1-one], the IC50 is at most 100 nM.

As to `C=CC(=O)N1C[C@@H](n2nc(C#Cc3cc4ncn(CC)c4cc3F)c3c(N)ncnc32)C[C@@H]1C` [Example 163, 1-((2S,4S)-4-(4-amino-3-((1-ethyl-6-fluoro-1H-benzo[d]imidazol-5-yl)ethynyl)-1H-pyrazolo[3,4-d]pyrimidin-1-yl)-2-methylpyrrolidin-1-yl)prop-2-en-1-one], the IC50 was at most 100 nM.

Molecule `C=CC(=O)N1C[C@@H](n2cc(C#Cc3cc4ncn(C(F)F)c4cc3F)c3c(N)ncnc32)C[C@@H]1COC` [Example 84, 1-[(2R,4S)-4-(4-Amino-5-[2-[1-(difluoromethyl)-6-fluoro-1,3-benzodiazol-5-yl]ethynyl]pyrrolo[2,3-d]pyrimidin-7-yl)-2-(methoxymethyl)pyrrolidin-1-yl]prop-2-en-1-one] yielded an IC50 of at most 100 nM.

On to `C=CC(=O)N1C[C@@H](n2nc(C#Cc3cc4ncn(CC)c4cc3F)c3c(N)nccc32)C[C@@H]1C` [Example 166, 1-((2S,4S)-4-(4-amino-3-((1-ethyl-6-fluoro-1H-benzo[d]imidazol-5-yl)ethynyl)-1H-pyrazolo[4,3-c]pyridin-1-yl)-2-methylpyrrolidin-1-yl)prop-2-en-1-one], for which the IC50 is at most 100 nM.

Turning to `C=CC(=O)N1C[C@@H](n2nc(C#Cc3cc4ncn(CC)c4cc3Cl)c3c(N)nccc32)C[C@@H]1C` [Example 169, 1-((2S,4S)-4-(4-amino-3-((6-chloro-1-ethyl-1H-benzo[d]imidazol-5-yl)ethynyl)-1H-pyrazolo[4,3-c]pyridin-1-yl)-2-methylpyrrolidin-1-yl)prop-2-en-1-one], the IC50 is at most 100 nM.

Molecule `C=CC(=O)N1C[C@@H](n2nc(C#Cc3ccc4c(cnn4C)c3)c3c(N)ncnc32)C[C@@H]1COC` [Example 40, 1-((2R,4S)-4-(4-amino-3-((1-methyl-1H-indazol-5-yl)ethynyl)-1H-pyrazolo[3,4-d]pyrimidin-1-yl)-2-(methoxymethyl)pyrrolidin-1-yl)prop-2-en-1-one] came in with an IC50 of at most 100 nM.

Turning to `C=CC(=O)N1C[C@H](c2nc(C#Cc3cc4ncn(C5CC5)c4cc3F)c3c(N)ncnn23)C[C@@H]1COC` [Example 198, 1-[(2R,4R)-4-{4-Amino-5-[2-(1-cyclopropyl-6-fluoro-1,3-benzodiazol-5-yl)ethynyl]imidazo[4,3-f][1,2,4]triazin-7-yl}-2-(methoxymethyl)pyrrolidin-1-yl]prop-2-en-1-one], for the setting “given as numeric bound”, the half-maximal inhibitory concentration (IC50) is over 500 nM.

Molecule `C=CC(=O)N1C[C@@H](n2nc(C#Cc3c(F)cc4nn(CC)cc4c3F)c3c(N)ncnc32)C[C@@H]1COC` [Example 49, 1-((2R,4S)-4-(4-amino-3-((2-ethyl-4,6-difluoro-2H-indazol-5-yl)ethynyl)-1H-pyrazolo[3,4-d]pyrimidin-1-yl)-2-(methoxymethyl)pyrrolidin-1-yl)prop-2-en-1-one] had an IC50 of 100 to 1000 nM.

Regarding `C=CC(=O)N1C[C@@H](n2nc(C#Cc3cc4nc(C)n(C)c4c(F)c3F)c3c(N)ncnc32)C[C@@H]1COC` [Example 122, 1-[(2R,4S)-4-[4-Amino-3-[2-(6,7-difluoro-1,2-dimethyl-1,3-benzodiazol-5-yl)ethynyl]pyrazolo[3,4-d]pyrimidin-1-yl]-2-(methoxymethyl)pyrrolidin-1-yl]prop-2-en-1-one], the IC50 is at most 100 nM.

For `C=CC(=O)N1C[C@@H](n2nc(C#Cc3c(F)cc4c(ncn4C(F)F)c3F)c3c(N)ncnc32)C[C@@H]1COC` [Example 64, 1-[(2R,4S)-4-(4-Amino-3-[2-[1-(difluoromethyl)-4,6-difluoro-1,3-benzodiazol-5-yl]ethynyl]pyrazolo[3,4-d]pyrimidin-1-yl)-2-(methoxymethyl)pyrrolidin-1-yl]prop-2-en-1-one], the IC50 was at most 100 nM.

The values above are taken from patent US20230374015A1, “INHIBITORS OF FIBROBLAST GROWTH FACTOR RECEPTOR KINASES” (Kinnate Biopharma Inc., priority 2020, published 2023).
